Source: patent EP0684818B1, “METHOD OF REVERSING RESISTANCE OF HIV-1 STRAINS TO ZIDOVUDINE” (priority 1993, dated 1994)
Values after ≈ are worked out from the molar mass of the structure shown. Values joined by “and” are separate entries in the source; they are usually repeats but may differ in a detail not shown here. Equal entries are not always repeated. Where two headings read alike, the source gives them in different places.

Legend:
[1] = system: HIV isolates from the patient; test: Sensitivity of HIV isolates from the patient to antiviral compounds (p24 antigen production in co-culture with PHA-stimulated donor lymphocytes); assay type: cell-based, HIV-1; conditions: for IC50: mutations I135T, Q207E, T215F, K219Q, 50% inhibition of p24 antigen production, repeated experiment nos.
Experimental: A standard HIV-1 isolation from fresh lymphocytes and fresh plasma was performed at several time points (two months (60 days) before the start of therapy, 1 month (30 days) and 4 months (120 days) after start of the therapy).
Plasma or lymphocytes from the patient were co-cultured with 3·10^6 PHA stimulated (phytohemagglutinin, Sigma, St. Louis, Mo., USA) HIV-1 negative donor lymphocytes. Cultures were performed in a 5% CO2 atmosphere at 37°C. Medium was replaced every 3 to 4 days. When cell death occured, fresh PHA-stimulated donor lymphocytes were added. Every 3 to 4 days, the cultures were monitored for cytopathic effect and for the presence of HIV-1 p24 antigen in the supernatant. Cultures were followed during 5 weeks. A sample was considered positive for virus if the concentration of p24 antigen in the supernatant of the co-culture (determined by a p24 antigen capture test) exceeded 1000 pg per milliliter on a single determination or > 200 pg per milliliter on two consecutive determinations. Supernatants of positive isolates were aliquoted and frozen at -70°C.
(§1) An aliquot of a positive isolate was co-cultured with several cultures of PHA-stimulated donor lymphocytes. Serial dilutions of the antiviral compound (α-[(2-nitrophenyl)-amino]-2,6-dichlorobenzeneacetamide (Co. I) or zidovudine) were added to the cultures. Cultures were performed in a 5% CO2 atmosphere at 37°C. Medium and drugs were replaced every 3 to 4 days. When cell death occured, fresh PHA-stimulated donor lymphocytes were added. The cultures were monitored for cytopathic effect and for the presence of p24 antigen in the supernatant. When p24 levels produced in the controls (without antiviral compound) exceeded 1000 pg per milliliter, a p24 antigen test was performed on all cultures treated with antivirals The concentration of antiviral compound that was needed to inhibit 50% of p24 antigen production of the controls, was calculated (IC50). The sensitivity of the isolates obtained from the patient was determined on several occasions at different times (experiment nos.). The nucleotide sequence of the reverse transcriptase was determined in order to identify mutations selected by exposure of the retrovirus to Co. I. The results obtained thus far are shown in table 1.

Wild-type Strain IIIB = test: Sensitivity of wild-type HIV-1 strain to antiviral compounds (p24 antigen production in PHA-stimulated donor lymphocytes); assay type: cell-based; conditions: 50% inhibition of p24 antigen production, repeated experiment nos.
Experimental: as §1

[2] = isolate after four months of Co. I therapy, novel mutation Y181C
[3] = isolate obtained two months before the therapy switch

NC(=O)C(Nc1ccccc1[N+](=O)[O-])c1c(Cl)cccc1Cl (stereo not drawn) [Co.I, α-[(2-nitrophenyl)amino]-2,6-dichlorobenzeneacetamide]
sensitivity of the HIV-1 isolate (in words) [1, 2]: resistant
sensitivity of the HIV-1 isolate (in words) [1, 3]: sensitive
IC50 ([1]; patient isolate at time 120 days after start of Co. I therapy (400 mg t.i.d., po), Y181C): >10 µg/mL
IC50 ([1]; patient isolate at time -60 days (two months before start of Co. I therapy)): 0.041 µg/mL and 0.07 µg/mL and 0.073 µg/mL and 0.054 µg/mL

Cc1cn([C@H]2C[C@H](N=[N+]=[N-])[C@@H](CO)O2)c(=O)[nH]c1=O [zidovudine, 3'-azido-3'-deoxythymidine]
sensitivity of the HIV-1 isolate (in words) [1, 2]: acquired again significant sensitivity
sensitivity of the HIV-1 isolate (in words) [1, 3]: resistant
IC50 (Wild-type Strain IIIB): 0.001 µg/mL and 0.0008 µg/mL
IC50 (Wild-type Strain IIIB; Human immunodeficiency virus 1, IIIB, Lymphocyte, read-out: IC50): 0.0011 µg/mL (≈ 4.12 nM)
